Key:
[1] = DRUGMATRIX: GABAA, Flunitrazepam, Central radioligand binding (ligand: [3H] Flunitrazepam); assay type: cell membranes, Rattus norvegicus, Wistar, Brain, Membrane; settings: Not Active = under 50% inhibition at 10 µM
[2] = DRUGMATRIX: Glutamate, NMDA, Phencyclidine radioligand binding (ligand: [3H] TCP); assay type: cell membranes, Rattus norvegicus, Wistar, Cerebral cortex, Membrane; settings: Not Active = under 50% inhibition at 10 µM
Insulin receptor = Insulin receptor (Rattus norvegicus, UniProt P15127); assay type: cell membranes, Wistar, Liver, Membrane; note: in other assays of this panel Not Active means under 50% inhibition at 10 µM
[3] = DRUGMATRIX: Leukotriene, BLT (LTB4) radioligand binding (ligand: [3H]LTB4); assay type: cell membranes, Membrane; settings: u-937; Not Active = under 50% inhibition at 10 µM
Melanocortin receptor 4 = Melanocortin receptor 4 (Homo sapiens, UniProt P32245); assay type: cell membranes, Membrane; settings: hek293; note: in other assays of this panel Not Active means under 50% inhibition at 10 µM
[4] = molecular target: T1, Muscarinic acetylcholine receptor M2 (Homo sapiens, UniProt P08172); assay type: cell membranes, CHO-K1, Membrane; settings: cho-k1; note: in other assays of this panel Not Active means under 50% inhibition at 10 µM
T1 sequence (P08172 whole entry): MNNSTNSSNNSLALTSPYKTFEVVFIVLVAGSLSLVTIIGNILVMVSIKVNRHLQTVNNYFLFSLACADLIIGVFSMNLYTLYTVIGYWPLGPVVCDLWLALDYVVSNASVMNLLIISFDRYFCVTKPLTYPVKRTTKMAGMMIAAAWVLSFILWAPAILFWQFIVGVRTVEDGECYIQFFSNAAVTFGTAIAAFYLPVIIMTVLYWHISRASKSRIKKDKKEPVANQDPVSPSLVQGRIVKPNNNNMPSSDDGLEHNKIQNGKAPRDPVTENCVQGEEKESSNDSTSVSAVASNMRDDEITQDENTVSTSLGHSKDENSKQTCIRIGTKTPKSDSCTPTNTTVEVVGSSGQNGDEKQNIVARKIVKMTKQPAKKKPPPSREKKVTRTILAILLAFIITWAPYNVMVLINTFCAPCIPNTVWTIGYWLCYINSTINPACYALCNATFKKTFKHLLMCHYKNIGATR

[5] = molecular target: T2, Muscarinic acetylcholine receptor M5 (Homo sapiens, UniProt P08912); assay type: cell membranes, CHO-K1, Membrane; settings: cho-k1; note: in other assays of this panel Not Active means under 50% inhibition at 10 µM
T2 sequence (P08912 whole entry): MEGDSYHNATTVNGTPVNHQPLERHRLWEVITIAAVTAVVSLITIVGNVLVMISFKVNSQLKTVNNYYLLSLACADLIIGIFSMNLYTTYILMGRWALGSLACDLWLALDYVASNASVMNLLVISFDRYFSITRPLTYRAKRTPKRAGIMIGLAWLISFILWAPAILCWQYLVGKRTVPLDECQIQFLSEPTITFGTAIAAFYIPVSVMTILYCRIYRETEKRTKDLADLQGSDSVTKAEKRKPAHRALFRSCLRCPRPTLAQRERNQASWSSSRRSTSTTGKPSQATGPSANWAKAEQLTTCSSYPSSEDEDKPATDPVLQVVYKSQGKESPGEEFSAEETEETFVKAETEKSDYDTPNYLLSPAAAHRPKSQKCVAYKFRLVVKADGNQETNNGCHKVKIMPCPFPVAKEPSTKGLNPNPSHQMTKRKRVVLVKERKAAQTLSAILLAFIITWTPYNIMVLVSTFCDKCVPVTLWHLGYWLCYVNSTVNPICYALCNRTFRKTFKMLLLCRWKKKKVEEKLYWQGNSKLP

Mu-type opioid receptor = Mu-type opioid receptor (Homo sapiens, UniProt P35372); assay: DRUGMATRIX: Opiate mu (OP3, MOP) radioligand binding (ligand: [3H] Diprenorphine); assay type: cell membranes, CHO-K1, Membrane; settings: cho-k1; Not Active = under 50% inhibition at 10 µM
[6] = DRUGMATRIX: Phosphodiesterase PDE3 enzyme inhibition (substrate: [3H]cAMP + cAMP); assay type: tissue-based, Homo sapiens; settings: platelet; Not Active = under 50% inhibition at 10 µM
Cytochrome P450 2A6 = molecular target: T3, Cytochrome P450 2A6 (Homo sapiens, UniProt P11509); settings: bti-tn-5b1-4; note: in other assays of this panel Not Active means under 50% inhibition at 10 µM
T3 sequence (P11509 whole entry): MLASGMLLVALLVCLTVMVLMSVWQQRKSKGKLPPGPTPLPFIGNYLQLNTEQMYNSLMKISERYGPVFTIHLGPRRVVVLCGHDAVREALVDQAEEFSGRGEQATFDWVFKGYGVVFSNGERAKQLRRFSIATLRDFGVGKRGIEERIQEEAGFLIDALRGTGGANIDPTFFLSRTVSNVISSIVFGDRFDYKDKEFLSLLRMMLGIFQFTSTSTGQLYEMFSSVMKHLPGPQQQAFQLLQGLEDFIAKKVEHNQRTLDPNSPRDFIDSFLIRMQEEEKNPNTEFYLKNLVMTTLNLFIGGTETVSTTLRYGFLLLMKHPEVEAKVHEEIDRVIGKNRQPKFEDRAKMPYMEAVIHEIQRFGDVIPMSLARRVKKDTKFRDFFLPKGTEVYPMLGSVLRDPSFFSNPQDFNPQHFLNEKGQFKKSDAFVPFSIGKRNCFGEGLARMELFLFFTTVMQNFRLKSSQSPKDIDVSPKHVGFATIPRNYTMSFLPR

Cytochrome P450 2E1 = Cytochrome P450 2E1 (Homo sapiens, UniProt P05181); settings: bti-tn-5b1-4; note: in other assays of this panel Not Active means under 50% inhibition at 10 µM
Cytochrome P450 2E1, sequence (P05181 whole entry): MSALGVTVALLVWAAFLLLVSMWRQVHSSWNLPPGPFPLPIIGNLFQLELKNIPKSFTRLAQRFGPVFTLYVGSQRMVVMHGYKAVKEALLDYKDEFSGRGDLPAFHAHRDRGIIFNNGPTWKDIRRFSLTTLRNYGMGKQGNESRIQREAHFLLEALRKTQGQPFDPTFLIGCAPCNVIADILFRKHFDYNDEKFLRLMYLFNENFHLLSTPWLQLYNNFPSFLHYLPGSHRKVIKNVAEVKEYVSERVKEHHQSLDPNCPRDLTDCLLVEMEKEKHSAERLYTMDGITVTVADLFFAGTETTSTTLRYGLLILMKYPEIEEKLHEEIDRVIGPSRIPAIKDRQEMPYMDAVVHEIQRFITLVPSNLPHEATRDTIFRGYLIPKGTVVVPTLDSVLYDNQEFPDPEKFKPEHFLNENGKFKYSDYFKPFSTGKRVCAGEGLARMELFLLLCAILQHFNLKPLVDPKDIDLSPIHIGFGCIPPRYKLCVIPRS

Insulin receptor, sequence (P15127 27-759 limits assumed): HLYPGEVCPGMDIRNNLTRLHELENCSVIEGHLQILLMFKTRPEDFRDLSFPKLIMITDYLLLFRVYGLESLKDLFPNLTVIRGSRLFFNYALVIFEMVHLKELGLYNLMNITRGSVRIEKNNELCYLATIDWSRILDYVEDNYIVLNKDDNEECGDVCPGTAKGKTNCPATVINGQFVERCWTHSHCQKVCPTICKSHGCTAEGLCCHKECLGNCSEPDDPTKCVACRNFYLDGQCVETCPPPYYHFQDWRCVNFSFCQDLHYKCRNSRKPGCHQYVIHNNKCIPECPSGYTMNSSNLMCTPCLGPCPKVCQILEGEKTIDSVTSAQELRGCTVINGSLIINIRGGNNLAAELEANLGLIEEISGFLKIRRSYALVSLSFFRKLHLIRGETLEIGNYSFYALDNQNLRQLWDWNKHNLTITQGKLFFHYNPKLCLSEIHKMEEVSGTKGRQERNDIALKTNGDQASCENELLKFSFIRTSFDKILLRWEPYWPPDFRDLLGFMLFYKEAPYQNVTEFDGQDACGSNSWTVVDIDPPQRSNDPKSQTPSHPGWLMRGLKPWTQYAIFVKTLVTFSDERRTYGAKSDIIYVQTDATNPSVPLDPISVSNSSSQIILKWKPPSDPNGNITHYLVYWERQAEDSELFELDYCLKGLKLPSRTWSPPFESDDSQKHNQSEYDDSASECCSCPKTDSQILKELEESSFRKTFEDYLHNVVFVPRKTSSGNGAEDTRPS
Insulin receptor, sequence (P15127 764-1383 limits assumed): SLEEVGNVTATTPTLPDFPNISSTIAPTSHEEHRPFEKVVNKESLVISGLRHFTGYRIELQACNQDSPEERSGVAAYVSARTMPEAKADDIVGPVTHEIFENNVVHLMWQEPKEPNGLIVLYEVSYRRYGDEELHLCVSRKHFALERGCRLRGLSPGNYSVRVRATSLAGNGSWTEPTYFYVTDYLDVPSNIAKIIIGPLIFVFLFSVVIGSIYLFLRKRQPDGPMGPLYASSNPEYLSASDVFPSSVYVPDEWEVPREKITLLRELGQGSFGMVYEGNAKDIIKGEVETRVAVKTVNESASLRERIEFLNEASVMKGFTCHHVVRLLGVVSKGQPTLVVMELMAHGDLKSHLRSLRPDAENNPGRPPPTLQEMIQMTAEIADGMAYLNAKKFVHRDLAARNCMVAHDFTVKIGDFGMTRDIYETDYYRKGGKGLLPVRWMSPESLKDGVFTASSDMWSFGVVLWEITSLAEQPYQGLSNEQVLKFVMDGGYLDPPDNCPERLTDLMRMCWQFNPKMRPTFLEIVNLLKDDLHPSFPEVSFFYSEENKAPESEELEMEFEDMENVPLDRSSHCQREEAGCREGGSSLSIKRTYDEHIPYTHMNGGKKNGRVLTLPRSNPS
Mu-type opioid receptor, sequence (P35372 whole entry): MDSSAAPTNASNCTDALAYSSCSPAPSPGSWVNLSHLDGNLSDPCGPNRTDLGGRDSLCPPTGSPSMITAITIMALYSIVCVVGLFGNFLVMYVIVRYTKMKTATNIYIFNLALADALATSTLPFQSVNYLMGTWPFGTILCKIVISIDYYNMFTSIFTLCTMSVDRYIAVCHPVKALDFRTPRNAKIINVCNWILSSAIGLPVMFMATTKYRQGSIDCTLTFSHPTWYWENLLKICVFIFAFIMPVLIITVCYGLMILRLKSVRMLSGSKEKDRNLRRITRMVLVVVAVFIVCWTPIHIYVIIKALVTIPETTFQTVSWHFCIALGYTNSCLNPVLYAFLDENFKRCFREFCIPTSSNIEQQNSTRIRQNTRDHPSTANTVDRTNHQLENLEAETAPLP
Melanocortin receptor 4, sequence (P32245 whole entry): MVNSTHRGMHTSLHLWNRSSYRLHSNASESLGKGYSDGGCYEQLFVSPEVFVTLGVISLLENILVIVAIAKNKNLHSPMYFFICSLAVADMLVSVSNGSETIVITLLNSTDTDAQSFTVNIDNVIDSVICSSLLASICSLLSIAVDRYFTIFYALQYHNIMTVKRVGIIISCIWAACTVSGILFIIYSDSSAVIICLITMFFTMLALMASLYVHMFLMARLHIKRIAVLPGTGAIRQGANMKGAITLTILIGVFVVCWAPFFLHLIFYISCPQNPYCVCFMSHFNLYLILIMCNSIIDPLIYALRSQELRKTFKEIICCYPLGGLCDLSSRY

[Cl-].[Cl-].[Zn+2] [ZINC CHLORIDE]
Not Active: IC50 [1] | Ki [1] | IC50 [2] | Ki [2] | IC50 (Insulin receptor) | IC50 [3] | Ki [3] | IC50 (Melanocortin receptor 4) | IC50 [4] | IC50 [5] | IC50 (Mu-type opioid receptor) | IC50 [6] | Ki [6] | IC50 (Cytochrome P450 2A6) | Ki (Cytochrome P450 2A6) | IC50 (Cytochrome P450 2E1) | Ki (Cytochrome P450 2E1)

Reference: ChEMBL document CHEMBL1909046, “DrugMatrix in vitro pharmacology data”
